Our source for the IC50 and melting point values is patent US8288549B2, “Glycine B antagonist” (Merz Pharma GmbH & Co. KGaA, priority 2008, dated 2012).

The target in data set [1] is T1, NMDA receptor glycine B site (Rattus norvegicus, UniProt P35439).
T1 construct: Hippocampi are then isolated from the brains of at least 8 embryos after decapitation; endogenous in cells; host or cells: primary cultured hippocampal neurons from E20 Sprague-Dawley rat embryos, 11-15 DIV
Nature of the data set: Whole cell patch-clamp recordings in cultured rat hippocampal neurons (NMDA/D-Serine evoked currents). Format: cell-based. The note with it: NMDA (200 μM) and D-Serine (1 μM), holding potential −70 mV, read-out: NMDA-PC-r-HIC-NAM - IC50. The protocol:
Antagonistic potencies of the test compounds are functionally evaluated using electrophysiological whole cell patch-clamp recordings and/or fluorometric intracellular Ca^2+-imaging (FLIPR) screens.
Cell preparation is performed as described by Parsons, et al. (Neuropharmacology, 1998, 37(6), 719-727). The female Sprague-Dawley rat is anaesthetised by placing in a saturated CO2-euthanasia chamber under further quiet CO2-influx. Under these conditions the rat loses consciousness after a few seconds and is then sacrificed by cervical dislocation. After opening the abdominal cavity, embryos (E20) are removed and stored in ice cold Ca^2+- and Mg^2+-free Hank's Buffered Salt Solution (pH 7.3), containing 4 g/l glucose (HBSS-CMF). Hippocampi are then isolated from the brains of at least 8 embryos after decapitation, transferred into ice cold HBSS-CMF and washed 3 to 4 times.
Hippocampi are pre-incubated for 8 min with a 0.66% trypsin (Sigma-Aldrich) and 0.1% (20 U/ml) DNAase solution (Sigma-Aldrich) in Ca^2+-free Phosphate Buffered Saline (PBS-CF) and washed 3 times with HBSS-CMF. Cells are then mechanically dissociated by trituration in a PBS-CF solution containing 0.05% (10 U/ml) DNAase and 0.3% of the trypsin inhibitor ovomucoid (all from Sigma-Aldrich). The cells are then centrifuged at 180×g for 10 minutes, and the cell pellet re-suspended in basal Minimum essential medium (MEM, Invitrogen, Karlsruhe, Germany), again carefully triturated to ensure maximal dissociation and finally plated in the flexiPERM inserts (Thermo Fisher Scientific, Langenselbold, Germany) at a density of 15×10^3 cells/cm^2 (0.5 ml/insert) onto poly-DL-ornithine (Sigma) and mouse laminin (Invitrogen) pre-coated plastic petri dishes. After 1 hour the cells become attached to the bottom of the dish and the inserts may be removed. The cells are then nourished with 2 ml MEM supplemented with 5% foetal calf serum (FCS) and 5% horse serum and incubated at 37° C. with 95% air and 5% CO2 at 95% humidity. After 4 days in vitro (DIV) further glial mitosis is inhibited by adding 10 μl of AraC (5 μM endconcentration). The medium is completely exchanged after an additional 2 DIV and again, but only partly (50%), after 8 DIV. The cells are used for electrophysiological recordings after 11-15 DIV.
Cells are visualised using an inverted microscope and selected for patching based upon their position and morphology. Voltage clamp recordings are made in the whole cell configuration of the patch clamp technique at a holding potential of −70 mV with the aid of an EPC-10 amplifier in combination with pipette manipulator. Patch clamp pipettes are pulled from borosilicate glass using a horizontal puller (P-97 Puller, Sutter Instruments, USA) and, when filled with intracellular solution, have resistances of 1-4 MΩ.
Solutions are delivered via a home-made gravity driven very fast perfusion system (<10 ms) including valves to switch flow on and off in combination with a stepper motor-driven double-barreled theta glass application pipette in order to expose cells to either agonist-free or agonist-containing solutions in presence or absence of antagonist.
The intracellular solution used consists of: 120 mM CsCl, 10 mM EGTA, 1 mM MgCl2, 200 μM CaCl2, 10 mM glucose and 22 mM tetraethyl ammonium chloride (TEA-CL). The corresponding extracellular bath solution contains: 140 mM NaCl, 3 mM KCl, 10 mM glucose, 10 mM HEPES, 1.5 mM CaCl2 and 4.5 mM sucrose (all from Sigma-Aldrich) pH 7.3, and is supplemented with 0.3 μM tetrodotoxin (TTX, Tocris, Bristol, U.K.) to block voltage-activated sodium channels and 0.25 μM bicuculline (Sigma-Aldrich) to block GABAA receptors. […]
(In general: Patch clamp records ionic current or voltage across a cell membrane.)

Consider `O=C(O)c1cc2cc(Cl)ccc2nc1NC(C(=O)O)C(C(=O)O)c1ccccc1` (centres unmarked) [Example 79, 2-(3-Carboxy-6-chloro-quinolin-2-ylamino)-3-phenyl-succinic acid], for which the melting point is 165 to 170 °C (dec.). Besides, the IC50 in data set [1] was 250 nM.
With `O=C(O)c1cc2cc(Cl)ccc2nc1NC(Cc1ccc(Oc2nc3ccccc3cc2C(=O)O)cc1)C(=O)O` (centres unmarked) [Example 110, 2-{1-Carboxy-2-[4-(3-carboxy-quinolin-2-yloxy)-phenyl]-ethylamino}-6-chloro-quinoline-3-carboxylic acid], the IC50 in data set [1] came out at 380 nM.
Consider `O=C(O)c1cc2cc(Cl)ccc2nc1N[C@@H](Cc1ccc(O)cc1)C(=O)O` [Example 34, 2-[(S)-1-Carboxy-2-(4-hydroxy-phenyl)-ethylamino]-6-chloro-quinoline-3-carboxylic acid], for which the IC50 in data set [1] came to 1670 nM.
In the case of `O=C(O)c1cc2cc(Cl)ccc2nc1N[C@@H](Cc1ccc(Oc2ccc(I)cn2)cc1)C(=O)O` [Example 131, 2-{1-Carboxy-2-[4-(5-iodo-pyridin-2-yloxy)-phenyl]-ethylamino}-6-chloro-quinoline-3-carboxylic acid], the IC50 in data set [1] was 170 nM.
Consider `O=C(O)c1cc2cc(Cl)ccc2nc1N[C@@H](Cc1ccc(Oc2ccc(Br)cn2)cc1)C(=O)O` [Example 101, 2-{(S)-2-[4-(5-Bromo-pyridin-2-yloxy)-phenyl]-1-carboxy-ethylamino}-6-chloro-quinoline-3-carboxylic acid], for which the melting point was in the range of 145 to 150 °C. Moreover, the IC50 in data set [1] was determined as 420 nM.
For `O=C(O)c1cc2cc(Br)ccc2nc1N[C@H](Cc1ccccc1)C(=O)O` [Example 47, 6-Bromo-2-((R)-1-carboxy-2-phenyl-ethylamino)-quinoline-3-carboxylic acid], in that order: 140 to 141 °C and 468 nM.
Take `O=C(O)c1cc2cc(Cl)ccc2nc1NC(Cc1ccc(Nc2ccc3ccccc3n2)cc1)C(=O)O` (centres unmarked) [Example 108, 2-{1-Carboxy-2-[4-(quinolin-2-ylamino)-phenyl]-ethylamino}-6-chloro-quinoline-3-carboxylic acid]: in data set [1], the IC50 was 560 nM.
Turning to `N.N.O=C(O)c1cc2cc(Cl)ccc2nc1NC(Cc1ccccc1F)C(=O)O` (centres unmarked) [Example 40, 2-[1-Carboxy-2-(2-fluoro-phenyl)-ethylamino]-6-chloro-quinoline-3-carboxylic acid ammonium salt], the melting point is 144 to 148 °C (dec.). Further, in data set [1], the half-inhibitory concentration (IC50) was 754 nM.
For the compound `O=C(O)C[C@H](Nc1nc2ccc(Cl)cc2cc1C(=O)O)C(=O)O` [Example 114, (S)-2-(3-Carboxy-6-chloro-quinolin-2-ylamino)-succinic acid ammonia hydrate], in data set [1], the half-maximal inhibitory concentration (IC50) turned out to be 720 nM.
`Nc1cc(C[C@H](Nc2nc3ccc(Cl)cc3cc2C(=O)O)C(=O)O)ccc1Oc1nc2ccc(Cl)cc2cc1C(=O)O` [Example 48, 2-{(S)-2-[3-Amino-4-(3-carboxy-6-chloro-quinolin-2-yloxy)-phenyl]-1-carboxy-ethylamino}-6-chloro-quinoline-3-carboxylic acid] gave a melting point above 250 °C. The IC50 in data set [1] amounted to 680 nM.
As to `O=C(O)c1cc2cc(Cl)c(Cl)cc2nc1N[C@H](Cc1c[nH]c2ccccc12)C(=O)O` [Example 36, 2-[(R)-1-Carboxy-2-(1H-indol-3-yl)-ethylamino]-6,7-dichloro-quinoline-3-carboxylic acid], in data set [1], the IC50 was found to be 1150 nM.
Still for that read-out and setting: for `O=C(O)c1cc2cc(Cl)ccc2nc1N[C@@H](Cc1ccc(Cl)cc1)C(=O)O` [Example 23, 2-[(S)-1-Carboxy-2-(4-chloro-phenyl)-ethylamino]-6-chloro-quinoline-3-carboxylic acid] the value was 898 nM.
For `O=C(O)c1cc2cc(Cl)ccc2nc1Nc1ccc(CC(Nc2nc3ccc(Cl)cc3cc2C(=O)O)C(=O)O)cc1` (centres unmarked) [Example 59, 2-{1-Carboxy-2-[4-(3-carboxy-6-chloro-quinolin-2-ylamino)-phenyl]-ethylamino}-6-chloro-quinoline-3-carboxylic acid], the melting point is > 250 °C (dec.). Also, the IC50 in data set [1] is 640 nM.
With `Cn1cc(C[C@H](Nc2nc3ccc(Cl)cc3cc2C(=O)O)C(=O)O)c2ccccc21` [Example 15, 2-[(S)-1-Carboxy-2-(1-methyl-1H-indol-3-yl)-ethylamino]-6-chloro-quinoline-3-carboxylic acid], the half-inhibitory concentration (IC50) in data set [1] came out at 1360 nM.
Same read-out and setting: to `O=C(O)c1cc2cc(Cl)ccc2nc1N[C@@H](Cc1ccc(Oc2ccc3c(-c4ccccc4)nccc3n2)cc1)C(=O)O` [Example 130, 2-{(S)-1-Carboxy-2-[4-(5-phenyl-[1,6]naphthyridin-2-yloxy)-phenyl]-ethylamino}-6-chloro-quinoline-3-carboxylic acid] belongs 190 nM.
In the case of `O=C(O)c1cc2cc(Cl)ccc2nc1NC(Cc1ccc(Oc2ccc3ccccc3n2)cc1)C(=O)O` (centres unmarked) [Example 96, 2-{1-Carboxy-2-[4-(quinolin-2-yloxy)-phenyl]-ethylamino}-6-chloro-quinoline-3-carboxylic acid], the melting point was found to be 136 °C.
Same read-out and setting: for `COc1ccccc1CC(Nc1nc2ccc(Cl)cc2cc1C(=O)O)C(=O)O` (centres unmarked) the value was > 180 °C (dec.); for `O=C(O)c1ccc(CC(Nc2nc3ccc(Cl)cc3cc2C(=O)O)C(=O)O)cc1` (centres unmarked), > 180 °C (dec.); for `O=C(O)c1cc2cc(Cl)ccc2nc1NC(Cc1cccc(CC(Nc2nc3ccc(Cl)cc3cc2C(=O)O)C(=O)O)c1)C(=O)O` (centres unmarked) [Example 82, 2-{2-[3-[2-(3-Carboxy-6-chloro-quinolin-2-yl)amino-2-carboxy-ethyl]-phenyl]-1-carboxy-ethylamino}-6-chloro-quinoline-3-carboxylic acid], > 185 °C (dec.).
Regarding `O=C(O)c1cc2cc(Cl)cc(Cl)c2nc1NC(Cc1cccc(F)c1)C(=O)O` (centres unmarked) [Example 115, 2-[1-Carboxy-2-(3-fluoro-phenyl)-ethylamino]-6,8-dichloro-quinoline-3-carboxylic acid], in data set [1], the IC50 was 510 nM.
Still for that read-out and setting: for `O=C(O)c1cc2cc(Cl)ccc2nc1N[C@H](Cc1ccccc1)C(=O)O` [Example 6, 2-((R)-1-Carboxy-2-phenyl-ethylamino)-6-chloro-quinoline-3-carboxylic acid] the value was 534 nM.
For the compound `O=C(O)c1cc2cc(Cl)ccc2nc1N[C@@H](Cc1ccc(O)c(Cl)c1)C(=O)O`, the melting point is 150 to 175 °C (dec.).
Regarding `O=C(O)c1cc2cc(Cl)ccc2nc1NC(Cc1ccccn1)C(=O)O` (centres unmarked) [Example 149, 2-(1-Carboxy-2-pyridin-2-yl-ethylamino)-6-chloro-quinoline-3-carboxylic acid], the IC50 in data set [1] is 170 nM.

The term IC50 denotes the concentration needed to halve the response being measured. One may read the melting point as the temperature, or range, at which the solid turns liquid.
